Source: PMC5526551, “New hydrazonoindolin-2-ones: Synthesis, exploration of the possible anti-proliferative mechanism of action and encapsulation into PLGA microspheres” (PLoS ONE, 2017)
Like-named read-outs stand apart in the source and are kept apart here.

Key:
[1] = test system: MCF-10A; test: Selectivity: growth inhibition in non-tumorigenic cell line; assay type: cell-based, human; settings: 72 h, maximum 25 μM, read-out: IC50 Breast MCF-10A
Protocol: This assessment of the growth inhibitory activity of the compounds was tested in quadruplicate at a maximum concentration of 25 μM, followed by 10 serially diluted concentrations.
A549, IEC-6, MCF-10A and 3t3 cells were harvested from 90-95% confluent cultures in 10 cm dishes, and diluted in growth media recommended by the suppliers as follows: A549 cells were cultured in RPMI-1640 medium supplemented with 5% fetal bovine serum (FBS). IEC-6 cells were obtained from ATCC and cultured in Dulbecco’s modified Eagle’s medium (DMEM) supplemented with 10% FBS and 0.1 unit/mL recombinant insulin. Swiss 3t3 cells were obtained from ATCC and cultured in DMEM supplemented with 10% FBS. MCF-10Acells were obtained from ATCC and cultured in a mixture DMEM and F12 media supplemented with 5% fetal bovine serum (FBS), 20 ng/mL recombinant epidermal growth factor, 10 µg/mL insulin, 0.5 µg/mL hydrocortisone and 100 ng/mL cholera toxin. An appropriate concentration of cells was prepared to add 1,250 cells in a volume of 25 µL per well in tissue culture treated BD 384-well microplates, then incubated overnight at 37 °C.
Compound 7e and the positive control, sunitinib, were diluted to a concentration of 25 µM in DMSO. Concentrated dosing solutions (double the final concentration) were prepared by dilution of the DMSO stocks 1:500 in growth medium. Two-fold serial dilutions were then prepared in medium containing 0.2% DMSO to maintain a constant concentration of vehicle throughout the concentration range of the compound. […]
At the end of the treatment period, assay plates were allowed to cool to RT for 10 min prior to addition of 25 µL per well Promega CellTiterGlo reagent, followed by an additional 10 min incubation at RT. The resulting luminescence was quantitated using a Molecular Devices Spectramax Paradigm.Percent growth inhibition was calculated using equation (1). The potency of compounds was determined using the non-linear dose response algorithm (four-parameter logistic fit) with GraphPad Prism 5 software.

[2] = test system: NCI-H69AR; test: Growth inhibition in multidrug resistant lung cancer cell line; assay type: cell-based; settings: 72 h, maximum 25 μM
Protocol: Compound 7e was analyzed for cancer cell growth inhibitory activity in a sensitive NSCLC cell line (A549) and a multidrug resistant lung cancer cell line (NCI-H69AR) which expresses the ABCC1 efflux pump protein. This assessment of activity tested compounds in quadruplicate at a maximum concentration of 25 μM, followed by 10 serially diluted concentrations.
A549 and H69AR cells were harvested from 90-95% confluent 10 cm dishes, and diluted in growth media. An appropriate concentration of cells was prepared to add 1,250 cells in a volume of 25 µL per well in tissue culture treated BD 384-well microplates, then incubated overnight at 37 °C.
Compound 7e was diluted to a concentration of 25 µM in DMSO. Concentrated dosing solutions (double the final concentration) were prepared by dilution of the DMSO stocks 1:500 in growth medium. Two-fold serial dilutions were then prepared in medium containing 0.2% DMSO to maintain a constant concentration of vehicle throughout the concentration range of the compound. Each of these was added in equal volume (25 µL), to four wells on each cell assay plate, along with the vehicle control. The highest concentration for serial dilution of the positive control compound sunitinib was prepared exactly as the experimental compound 7e. Cells were incubated at 37°C with the compounds for a further 72 h. At the end of the treatment period, assay plates were allowed to cool to RT for 10 min prior to addition of 25 µL per well Promega CellTiterGlo reagent, followed by an additional 10 min incubation at RT. The resulting luminescence was quantitated using a Molecular Devices Spectramax Paradigm.
Percent growth inhibition was calculated using equation (1). The potency of compounds was determined using the non-linear dose response algorithm (four-parameter logistic fit) with GraphPad Prism 5 software.

[3] = test system: HT-29, ZR-75 and A-549 cell lines; test: Average anti-proliferative activity over the three cancer cell lines; assay type: cell-based, human; settings: Homo sapiens, average of HT-29, ZR-75, A-549; for inhibition at 30 µM: read-out: Average Growth Inhibition %
Protocol: Twenty compounds, i.e. 4a-o and 7a-e, were analyzed for cancer cell growth inhibitory activity. These studies were carried out using cells derived from human lung, colon and breast tumors (A549, HT-29 and ZR-75 cells, respectively). This initial assessment of activity tested each compound in quadruplicate at a single concentration of 30 μM, if solubility permitted.
Therefore, they were subjected to quantitative inhibitory concentration 50% (IC50) determination for their cell growth inhibitory activity towards the A549, HT-29 and ZR-75 cancer cell lines.
A549, HT-29, ZR-75 were obtained from the American Type Culture Collection (ATCC). Cells were harvested from 90-95% confluent 10 cm dishes, and diluted in growth media (RPMI-1640 supplemented with 5% fetal bovine serum). An appropriate concentration of cells were prepared to add 1,250 cells in a volume of 25 µL per well in tissue culture treated Griener 384-well microplates, then incubated overnight at 37°C. Compound 7e was diluted to a concentration of 30 µM in DMSO. Concentrated dosing solutions of twice the final concentration were prepared by dilution of the DMSO stocks 1:500 in growth media. Two-fold serial dilutions were then prepared in medium containing 0.2% DMSO to maintain a constant concentration of vehicle throughout the concentration range of the compound. Each of these was added in an equal volume (25 µL) to four wells on each cell assay plate, along with the vehicle control. The highest concentration for serial dilutions of the positive control (sunitinib) was prepared exactly as the experimental compound 7e. Cells were incubated with the compounds for a further 72 h.
The potency of compounds was determined using the non-linear dose response algorithm (four-parameter logistic fit) with GraphPad Prism 5 software.

Row | Compound | IC50 [1] [nM] | IC50 ([1]; Homo sapiens, MCF-10A) [nM] | IC50 [2] [µM] | IC50 ([2]; NCI-H69AR) [µM] | inhibition at 30 µM [3] [%] | IC50 [3] [µM]
1 | O=C1Nc2ccc(Br)cc2C1=NN=C1C(=O)N(Cc2ccccc2)c2ccccc21 [Compound 7e, 1-Benzyl-3-((5-bromo-2-oxoindolin-3-ylidene)hydrazono)indolin-2-one] | 1750 | 1760 | 12.7 | 12.7 | 96.3 | 2.37
2 | CCN(CC)CCNC(=O)c1c(C)[nH]c(/C=C2\C(=O)Nc3ccc(F)cc32)c1C [Sunitinib, sunitinib, reference compound] |  | 4430 | 5.8 | 5.83 | 78.7 | 8.11
